Results reported in ChEMBL document CHEMBL1137252, “Substituted 5-benzyl-2-phenyl-5H-imidazo[4,5-c]pyridines: a new class of pestivirus inhibitors” (Bioorg Med Chem Lett, 2006).
Active and inactive are the calls of the source. How the calls were made is not given here.

Assays:
Hepatitis C virus = assay: Antiviral activity against HCV 1a; assay type: functional, organism-based; conditions: Hepacivirus hominis; subtype 1a
[1] = Selectivity index, CC50 for MDBK cells/EC50 for BVDV NADL; assay type: functional
[2] = Cytotoxicity against MDBK cells; assay type: cell-based, Bos taurus; conditions: cattle
[3] = system: Bovine viral diarrhea virus 1; assay: Antiviral activity against BVDV NADL in MDBK cells; assay type: functional, organism-based; conditions: Bovine viral diarrhea virus isolates and strains

SMILES | Activity (Hepatitis C virus) | Ratio CC50/EC50 [1] | CC50 [2] | EC50 [3]
c1ccc(-c2nc3ccn(Cc4ccncc4)cc-3n2)cc1 | inactive | >50 | > 100 µM | 2 µM
FC(F)(F)c1ccccc1Cn1ccc2nc(-c3ccccc3)nc-2c1 | inactive | >67 | > 100 µM | 1.5 µM
Clc1ccc(Cn2ccc3nc(-c4ccccc4)nc-3c2)cc1Cl | inactive | 645 | 71 µM | 0.11 µM
Fc1ccccc1Cn1ccc2nc(-c3ccccc3)nc-2c1 | inactive | >1000 | > 100 µM | 0.1 µM
Cc1cccc(Cn2ccc3nc(-c4ccccc4)nc-3c2)c1 | inactive | >167 | > 100 µM | 0.6 µM
Brc1ccc(Cn2ccc3nc(-c4ccccc4)nc-3c2)cc1 | inactive | 1186 | – | 0.07 µM
Fc1cccc(F)c1Cn1ccc2nc(-c3c(F)cccc3F)nc-2c1 | inactive | >65 | > 100 µM | 1.5 µM
c1ccc(OCCn2ccc3nc(-c4ccccc4)nc-3c2)cc1 | inactive | >370 | > 100 µM | 0.27 µM
COc1cccc(Cn2ccc3nc(-c4ccccc4)nc-3c2)c1 | inactive | >200 | > 100 µM | 0.5 µM
c1ccc(-c2ccc(Cn3ccc4nc(-c5ccccc5)nc-4c3)cc2)cc1 | inactive | 225 | 18 µM | 0.08 µM
CCn1ccc2nc(-c3ccccc3)nc-2c1 | inactive | >7 | > 100 µM | 15 µM
c1ccc(-c2nc3ccn(Cc4ccc5ccccc5c4)cc-3n2)cc1 | inactive | 13 | 67 µM | 5 µM
Cc1ccc(Cn2ccc3nc(-c4ccccc4)nc-3c2)cc1 | inactive | >769 | > 100 µM | 0.13 µM
CCC(CC)Cn1ccc2nc(-c3ccccc3)nc-2c1 | inactive | >52 | > 100 µM | 1.9 µM
CC(C)=CCn1ccc2nc(-c3ccccc3)nc-2c1 | inactive | >33 | > 100 µM | 3 µM
c1ccc(CCCCn2ccc3nc(-c4ccccc4)nc-3c2)cc1 | inactive | 45 | 95 µM | 2.1 µM
c1ccc(-c2nc3ccn(CC4CCCCC4)cc-3n2)cc1 | inactive | >118 | > 100 µM | 0.85 µM
Clc1ccc(Cn2ccc3nc(-c4ccccc4)nc-3c2)cc1 | inactive | >1250 | > 100 µM | 0.08 µM
Fc1cccc(F)c1Cn1cccc2nc(-c3c(F)cccc3F)nc1-2 | inactive | <=3 | > 100 µM | ≥ 32 µM
COc1ccccc1Cn1ccc2nc(-c3ccccc3)nc-2c1 | inactive | >370 | > 100 µM | 0.27 µM
c1ccc(Cn2ccc3nc(-c4ccccc4)nc-3c2)cc1 | inactive | >400 | > 100 µM | 0.25 µM
CC(C)N(CCn1ccc2nc(-c3ccccc3)nc-2c1)C(C)C | inactive | >45 | > 100 µM | 2.2 µM
Brc1ccccc1Cn1ccc2nc(-c3ccccc3)nc-2c1 | inactive | >357 | > 100 µM | 0.28 µM
Clc1cccc(Cn2ccc3nc(-c4ccccc4)nc-3c2)c1 | inactive | >476 | > 100 µM | 0.21 µM
N#Cc1ccc(Cn2ccc3nc(-c4ccccc4)nc-3c2)cc1 | inactive | >435 | > 100 µM | 0.23 µM
FC(F)(F)Oc1ccc(Cn2ccc3nc(-c4ccccc4)nc-3c2)cc1 | inactive | 244 | 66 µM | 0.27 µM
C(=C\c1ccccc1)/Cn1ccc2nc(-c3ccccc3)nc-2c1 | inactive | 459 | 78 µM | 0.17 µM

SMILES | Activity (Hepatitis C virus) | Ratio CC50/EC50 [1] | CC50 [2] | EC50 [3]
Fc1cccc(F)c1Cn1ccc2nc(-c3ccccc3)nc-2c1 | inactive | >435 | > 100 µM | 0.23 µM
Fc1ccc(Cn2ccc3nc(-c4ccccc4)nc-3c2)cc1 | inactive | >833 | > 100 µM | 0.12 µM
Fc1cccc(Cn2ccc3nc(-c4ccccc4)nc-3c2)c1 | inactive | >667 | > 100 µM | 0.15 µM
Clc1ccccc1Cn1ccc2nc(-c3ccccc3)nc-2c1 | inactive | >526 | > 100 µM | 0.19 µM
Cc1ccccc1Cn1ccc2nc(-c3ccccc3)nc-2c1 | inactive | >333 | > 100 µM | 0.3 µM
CC(c1ccccc1)n1ccc2nc(-c3ccccc3)nc-2c1 (centres undefined) | inactive | >48 | > 100 µM | 2.1 µM
c1ccc(-c2nc3cc[nH]cc-3n2)cc1 | inactive | >10 | > 100 µM | 10 µM
c1ccc(CCCn2ccc3nc(-c4ccccc4)nc-3c2)cc1 | inactive | >143 | > 100 µM | 0.7 µM
FC(F)(F)c1cccc(Cn2ccc3nc(-c4ccccc4)nc-3c2)c1 | inactive | 408 | 98 µM | 0.24 µM
Cc1ccn(Cc2c(F)cccc2F)c2nc(-c3c(F)cccc3F)nc1-2 | inactive | <=1.1 | > 100 µM | ≥ 88 µM
Fc1cccc(F)c1Cn1c(-c2c(F)cccc2F)nc2cnccc21 | inactive | >6 | > 100 µM | 16.2 µM
N#Cc1ccccc1Cn1ccc2nc(-c3ccccc3)nc-2c1 | inactive | >132 | > 100 µM | 0.76 µM
Clc1ccc(Cn2ccc3nc(-c4ccccc4)nc-3c2)s1 | inactive | >476 | > 100 µM | 0.21 µM
FC(F)(F)c1ccc(Cn2ccc3nc(-c4ccccc4)nc-3c2)cc1 | inactive | 455 | 84 µM | 0.22 µM
Fc1cccc(F)c1Cn1c(-c2c(F)cccc2F)nc2ccncc21 | inactive | <=2 | 99 µM | ≥ 48 µM
c1ccc(-c2nc3ccn(Cc4ccccn4)cc-3n2)cc1 | inactive | >63 | > 100 µM | 1.6 µM
CC(C)(C)c1ccc(Cn2ccc3nc(-c4ccccc4)nc-3c2)cc1 | inactive | 45 | 22 µM | 0.49 µM
Ic1ccc(Cn2ccc3nc(-c4ccccc4)nc-3c2)cc1 | inactive | 183 | 22 µM | 0.12 µM
N#Cc1cccc(Cn2ccc3nc(-c4ccccc4)nc-3c2)c1 | inactive | >25 | > 100 µM | 4 µM
Fc1cccc(F)c1-c1nc2ccn(Cc3ccccc3)cc-2n1 | inactive | >25 | > 100 µM | 4 µM
c1ccc(-c2nc3ccn(Cc4cccc5ccccc45)cc-3n2)cc1 | inactive | 1017 | 61 µM | 0.06 µM
O=C(O)c1ccc(Cn2ccc3nc(-c4ccccc4)nc-3c2)cc1 | inactive | – | > 100 µM | > 100 µM
c1ccc(-c2nc3ccn(Cc4cccnc4)cc-3n2)cc1 | inactive | >59 | > 100 µM | 1.7 µM
Fc1cccc(F)c1-c1nc2ccn(CCc3ccccc3)cc-2n1 | inactive | >2 | > 100 µM | 57 µM
CC(C)CCn1ccc2nc(-c3ccccc3)nc-2c1 | inactive | >26 | > 100 µM | 3.8 µM
Brc1cccc(Cn2ccc3nc(-c4ccccc4)nc-3c2)c1 | inactive | 304 | 85 µM | 0.28 µM
COc1ccc(Cn2ccc3nc(-c4ccccc4)nc-3c2)cc1 | inactive | >714 | > 100 µM | 0.14 µM
